Assay results as given in EP2601963B1, “N-ISOVALEROYL-L-GLUTAMYL-L-TRYPTOPHAN AS AN AGENT INHIBITING THE FORMATION OF ULCERS IN THE STOMACH AND THE DUODENUM” (Obshestvo S Ogranichennoj Otvetstvennostju "CytoNIR", priority 2010, dated 2015).

Assays:
[1] = tested on: alkaline phosphatase (AP); experiment: Indomethacin-induced ulcer model, therapeutic: alkaline phosphatase activity in blood serum; format: in vivo, male Wistar rats; conditions: treatment 5 days after Indomethacin
Method: (§1) Alanine aminotransferase (ALT) and alkaline phosphatase (AP) activity in blood serum was determined with "Vital Development Corporation" kits.
(§2) 2 ml/kg of the ulcerogenic dose of indomethacin equal to 30 mg/kg was administered intraperitoneally. The treatment started 24 hrs. post indomethacin administration and continued for 5 days. The animals in the experimental groups received N-isovaleroyl-L-glutamyl-L-tryptophan or the comparator drug Sucralfate, and the control group received distilled water.

malondialdehyde (MDA) [2] = experiment: Indomethacin-induced ulcer model, therapeutic: malondialdehyde in blood serum; format: in vivo, male Wistar rats; conditions: for MDA: blood serum, treatment 5 days after Indomethacin
Method: (§3) Intensity of the free radical oxidation was evaluated by the malondialdehyde (MDA) accumulation in blood serum [R.A. Temirbulatov, Ye.I. Seleznev Method for Increasing the Intensity of Free Radical Oxidation in Lipid-Containing Blood Components and its Diagnostic Significance // Labor. Delo, 1981, # 4, p.p. 209 - 211]. The state of the antioxidant systems was evaluated by the superoxide dismutase (SODM) activity [S. Chevari , I. Chaba, Y. Sekei. The Role of Superoxide Dismutase in Cellular Oxidative Processes and Method of its Determination in Biological Materials // Labor. Delo, 1985, # 11, p.p. 678 - 681].
as §2

[3] = tested on: superoxide dismutase (SODM); experiment: Indomethacin-induced ulcer model, therapeutic: superoxide dismutase activity in blood serum; format: in vivo, male Wistar rats; conditions: treatment 5 days after Indomethacin
Method: as §3, §2

[4] = Water-immersion stress model: weight of organs; format: in vivo, male Wistar rats
Method: (§4) Intensity of changes caused by stressors in the internal organs of the animals was evaluated by the relative weight changes of the adrenal glands, thymus, and spleen calculated as a ratio of the organ's weight to the body weight of the animal multiplied by 100.

[5] = Indomethacin-induced ulcer model, therapeutic: weight of organs; format: in vivo, male Wistar rats; conditions: treatment 5 days after Indomethacin
Method: as §4, §2

[6] = tested on: Alanine aminotransferase (ALT); experiment: Indomethacin-induced ulcer model, therapeutic: alanine aminotransferase activity in blood serum; format: in vivo, male Wistar rats; conditions: treatment 5 days after Indomethacin
Method: as §1, §2

[7] = tested on: Alanine aminotransferase (ALT); experiment: Water-immersion stress model: alanine aminotransferase activity in blood serum; format: in vivo, male Wistar rats
Method: as §1

malondialdehyde (MDA) [8] = experiment: Water-immersion stress model: malondialdehyde in blood serum; format: in vivo, male Wistar rats
Method: as §3

malondialdehyde (MDA) [9] = experiment: Indomethacin-induced ulcer model, preventive: malondialdehyde in blood serum; format: in vivo, male Wistar rats; conditions: for MDA: blood serum, preventive
Method: as §3
(§5) The efficacy of the course of preventive treatment with the claimed composition was evaluated 24 hrs. post indomethacin administration. The study was conducted as in Example 1.

[10] = tested on: superoxide dismutase (SODM); experiment: Indomethacin-induced ulcer model, preventive: superoxide dismutase activity in blood serum; format: in vivo, male Wistar rats; conditions: for SODM: blood serum, preventive
Method: as §3, §5

[11] = Indomethacin-induced ulcer model, preventive: weight of organs; format: in vivo, male Wistar rats
Method: as §4, §5

[12] = tested on: Alanine aminotransferase (ALT); experiment: Indomethacin-induced ulcer model, preventive: alanine aminotransferase activity in blood serum; format: in vivo, male Wistar rats
Method: as §1, §5

[13] = tested on: alkaline phosphatase (AP); experiment: Water-immersion stress model: alkaline phosphatase activity in blood serum; format: in vivo, male Wistar rats
Method: as §1

[14] = tested on: alkaline phosphatase (AP); experiment: Indomethacin-induced ulcer model, preventive: alkaline phosphatase activity in blood serum; format: in vivo, male Wistar rats
Method: as §1, §5

[15] = Indomethacin intoxication, therapeutic: changes in body weight; format: in vivo, male Wistar rats; conditions: Indomethacin 30 mg/kg, Before Indomethacin = 100
Method: as §2
Some loss of weight of the intact animals could be contributed to the 18-hr fasting. […]

[16] = tested on: superoxide dismutase (SODM); experiment: Water-immersion stress model: superoxide dismutase activity in blood serum; format: in vivo, male Wistar rats
Method: as §3

[17] = Indomethacin-induced ulcer model, therapeutic: survival; format: in vivo, male Wistar rats; conditions: Indomethacin 30 mg/kg
Method: as §2
On the 5th day, only 7 out of 10 animals in the control group survived, while in the group receiving VGT 9 out of 10 survived.

[18] = Acute toxicity, single intramuscular dose; format: in vivo, white outbred male mice; conditions: single-dose administration, dose exceeding the recommended therapeutic dose more than 100 times
Method: Total toxicity of N-isovaleroyl-L-glutamyl-L-tryptophan was studied in accordance with the requirements of The Handbook of the Experimental (non-clinical) Studies of Novel Pharmaceutical Substances (2000): single dose acute toxicity and sub-acute and chronic toxicity during long-term administration of the dipeptide.
Acute toxicity testing was conducted on 60 white outbred male mice with 20 - 23 g body weights. The animals were divided into 6 equal groups. Single intramuscular doses of the medication were administered to the animals in the amount of 0.1 ml in the following doses: 1 mg/kg, 5 mg/kg, 10 mg/kg, and 20 mg/kg in sterile 0.9 % NaCl solution. The animals in the control group were receiving the same amounts of 0.9 % NaCl solution.

[19] = 0.1 mkg/kg + Indomethacin 20 mg/kg
[20] = 10 mkg/kg + Indomethacin 20 mg/kg
[21] = preventive administration, indomethacin 20 mg/kg

N-isovaleroyl-L-glutamyl-L-tryptophan [VGT preparation]
AP ([1]; 0.1 mkg/kg): 1357 ± 58 nM/c*L
AP ([1]; 10.0 mkg/kg): 1368 ± 148 nM/c*L
MDA (malondialdehyde (MDA) [2]; 0.1 mkg/kg): 0.169 ± 0.012 OD532
MDA (malondialdehyde (MDA) [2]; 10.0 mkg/kg): 0.217 ± 0.030 OD532
reduced MDA content (malondialdehyde (MDA) [2]; small dose, treatment after Indomethacin): 70%
SODM ([3]; 0.1 mkg/kg): 3.1 ± 0.11 conv. units/ml
SODM ([3]; 10.0 mkg/kg): 3.06 ± 0.16 conv. units/ml
Adrenal Glands Rel Wt. ([4]; 0.1 mkg/kg + stress): 0.017 ± 0.001 %
Adrenal Glands Wt. ([4]; 0.1 mkg/kg + stress): 40.8 ± 1.1 mg
Spleen Rel Wt. ([4]; 0.1 mkg/kg + stress): 0.37 ± 0.06 %
Spleen Wt. ([4]; 0.1 mkg/kg + stress): 0.872 ± 0.066 g
Thymus Rel Wt. ([4]; 0.1 mkg/kg + stress): 0.124 ± 0.010 %
Thymus Wt. ([4]; 0.1 mkg/kg + stress): 0.307 ± 0.028 g
reducing adrenal weight compared to that of the control animals ([4]; 0.1 mkg/kg + stress): 16 - 17%
Adrenal Glands Rel Wt. ([4]; 10.0 mkg/kg + stress): 0.018 ± 0.001 %
Adrenal Glands Wt. ([4]; 10.0 mkg/kg + stress): 45.2 ± 2.2 mg
Spleen Rel Wt. ([4]; 10.0 mkg/kg + stress): 0.41 ± 0.03%
Spleen Wt. ([4]; 10.0 mkg/kg + stress): 0.977 ± 0.082 g
Thymus Rel Wt. ([4]; 10.0 mkg/kg + stress): 0.154 ± 0.008%
Thymus Wt. ([4]; 10.0 mkg/kg + stress): 0.350 ± 0.022 g
lowered the relative weight of the spleen compared to that of the intact animals ([4]; small doses + stress): 24%
Adrenal Glands Rel. wt. ([5]; 0.1 mkg/kg): 0.019 ± 0.002%
Adrenal Glands Wt. ([5]; 0.1 mkg/kg): 41.8 ± 5.1
Liver Rel. wt. ([5]; 0.1 mkg/kg): 3.27 ±0.18%
Liver Wt. ([5]; 0.1 mkg/kg): 7.062 ± 0.411 g
Spleen Rel. wt. ([5]; 0.1 mkg/kg): 0.48 ± 0.03%
Spleen Wt. ([5]; 0.1 mkg/kg): 1.061 ± 0.085 g
Thymus Rel. wt. ([5]; 0.1 mkg/kg): 0.081 ± 0.007%
Thymus Wt. ([5]; 0.1 mkg/kg): 0.173 ± 0.018 g
Adrenal Glands Rel. wt. ([5]; 10.0 mkg/kg): 0.022 ± 0.002%
Adrenal Glands Wt. ([5]; 10.0 mkg/kg): 48.3 ± 2.2
Liver Rel. wt. ([5]; 10.0 mkg/kg): 3.76 ± 0.020 %
Liver Wt. ([5]; 10.0 mkg/kg): 8.310 ± 0.426 g
Spleen Rel. wt. ([5]; 10.0 mkg/kg): 0.56 ± 0.05%
Spleen Wt. ([5]; 10.0 mkg/kg): 1.233 ± 0.104 g
Thymus Rel. wt. ([5]; 10.0 mkg/kg): 0.078 ± 0.008%
Thymus Wt. ([5]; 10.0 mkg/kg): 0.179 ± 0.032 g
ALT ([6]; 0.1 mkg/kg): 0.75 ± 0.09 mM/h*L
ALT ([6]; 10.0 mkg/kg): 0.66 ± 0.11 mM/h*L
ALT ([7]; 0.1 mkg/kg + stress): 1.55 ± 0.15 mM/hr-L
ALT ([7]; 10.0 mkg/kg + stress): 1.78 ± 0.08 mM/hr-L
MDA (malondialdehyde (MDA) [8]; 0.1 mkg/kg + stress): 0.130 ± 0.019 OD532
MDA (malondialdehyde (MDA) [8]; 10 mkg/kg + stress): 0.128 ± 0.020 OD532
MDA (malondialdehyde (MDA) [9]; [19]): 0.124 ± 0.009 OD532
MDA (malondialdehyde (MDA) [9]; [20]): 0.158 ± 0.030 OD532
reduced the final LP-MDA product concentration compared to control animals (malondialdehyde (MDA) [9]; [21]): 14%
SODM [10, 19]: 2.50 ± 0.05 con. units/ml
SODM [10, 20]: 2.58 ± 0.14 con. units/ml
increased the activity of SODM compared to control animals [10, 21]: 1.6 times
Adrenal Glands Rel. wt. [11, 19]: 0.017 ± 0.001%
Adrenal Glands Wt. [11, 19]: 37.1 ± 1.3 mg
Liver Rel. wt. [11, 19]: 2.99 ± 0.060%
Liver Wt. [11, 19]: 6.549 ± 0.282 g
Spleen Rel. wt. [11, 19]: 0.433 ± 0.041%
Spleen Wt. [11, 19]: 0.912 ± 0.044 g
Thymus Rel. wt. [11, 19]: 0.124 ± 0.007 %
Thymus Wt. [11, 19]: 0.277 ± 0.018 g
Adrenal Glands Rel. wt. [11, 20]: 0.018 ± 0.001%
Adrenal Glands Wt. [11, 20]: 38.5 ± 1.4 mg
Liver Rel. wt. [11, 20]: 3.053 ± 0.065%
Liver Wt. [11, 20]: 6.770 ± 0.335 g
Spleen Rel. wt. [11, 20]: 0.434 ± 0.018%
Spleen Wt. [11, 20]: 0.926 ± 0.060 g
Thymus Rel. wt. [11, 20]: 0.133 ± 0.009%
Thymus Wt. [11, 20]: 0.320 ± 0.030 g
ALT [12, 19]: 1.04 ± 0.06 mM/hr-L
ALT [12, 20]: 1.08 ± 0.06 mM/hr-L
AP ([13]; 0.1 mkg/kg + stress): 1100 ± 54 nM/s-L
AP ([13]; 10.0 mkg/kg + stress): 1123 ± 55 nM/s-L
AP [14, 19]: 1108 ± 91 nM/s-L
AP [14, 20]: 1180 ± 91 nM/s-L
Body weight In 5 days ([15]; 0.1 mkg/kg): 84.4 ± 2.3
Body weight In 5 days ([15]; 10.0 mkg/kg): 84.1 ± 3.0
SODM ([16]; 0.1 mkg/kg + stress): 2.20 ± 0.09 con. units/ml
SODM ([16]; 10 mkg/kg + stress): 2.35 ± 0.11 con. units/ml
animals survived ([17]; 0.1 mkg/kg): 9 out of 10
animals survived ([17]; on the 5th day, control 7 out of 10): 9 out of 10
toxic reactions [18]: did not cause any toxic reactions
